From patent publication US6610677B2, “Pyrazole compounds useful as protein kinase inhibitors” (Vertex Pharmaceuticals Incorporated, priority 2000, dated 2003)

Legend:
GSK-3β (AA 1-420) = molecular target: T1, GSK-3β (AA 1-420) (Homo sapiens, UniProt P49841); experiment: Ki determination for the inhibition of GSK-3 (coupled enzyme system); format: biochemical; settings: 20 μM ATP, 300 μM peptide, 20 nM GSK-3β, 30° C
T1 construct: GSK-3β (AA 1-420)
Summary of the method: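 Ki values come from reaction rates over 10 min at 30 °C as a function of inhibitor concentration (12-point titration, 0.002–30 μM, 10 min preincubation). GSK-3β (AA 1-420, 20 nM) phosphorylated 300 μM primed peptide with 20 μM ATP; ADP formation followed by coupled NADH oxidation, pH 7.5.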

Aurora-2 = molecular target: T2, Aurora-2 (Homo sapiens, UniProt O14965); experiment: Ki determination for the inhibition of Aurora-2 (coupled enzyme assay); format: biochemical; settings: 70 nM Aurora-2, peptide LRRASLG, 30° C
T2 sequence (O14965 1-403): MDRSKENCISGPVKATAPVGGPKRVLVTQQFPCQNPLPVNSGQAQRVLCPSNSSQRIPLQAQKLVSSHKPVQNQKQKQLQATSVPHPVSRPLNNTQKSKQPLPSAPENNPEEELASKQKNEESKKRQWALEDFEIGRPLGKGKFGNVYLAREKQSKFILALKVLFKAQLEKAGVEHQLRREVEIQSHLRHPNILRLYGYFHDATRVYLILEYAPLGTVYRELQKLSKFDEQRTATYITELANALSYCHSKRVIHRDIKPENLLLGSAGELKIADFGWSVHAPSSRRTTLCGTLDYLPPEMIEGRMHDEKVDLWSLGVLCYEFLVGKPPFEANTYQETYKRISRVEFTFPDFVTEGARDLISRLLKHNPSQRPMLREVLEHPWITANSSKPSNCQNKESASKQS
Description: Compounds were screened in the following manner for their ability to inhibit Aurora-2 using a standard coupled enzyme assay (Fox et al (1998) Protein Sci 7, 2249).
To an assay stock buffer solution containing 0.1M HEPES 7.5, 10 mM MgCl2, 1 mM DTT, 25 mM NaCl, 2.5 mM phosphoenolpyruvate, […], 30 mg/ml pyruvate kinase, 10 mg/ml lactate dehydrogenase, […], and 800 μM peptide (LRRASLG, American Peptide, Sunnyvale, Calif.) was added a DMSO solution of a compound of the present invention to a final concentration of 30 μM. The resulting mixture was incubated at 30° C. for 10 min. The reaction was initiated by the addition of 10 μL of Aurora-2 stock solution to give a final concentration of 70 nM in the assay. The rates of reaction were obtained by monitoring absorbance at 340 nm over a 5 minute read time at 30° C. using a BioRad Ultramark plate reader (Hercules, Calif.). The Ki values were determined from the rate data as a function of inhibitor concentration.

T1 sequence (P49841 whole entry, the tested form may be a part): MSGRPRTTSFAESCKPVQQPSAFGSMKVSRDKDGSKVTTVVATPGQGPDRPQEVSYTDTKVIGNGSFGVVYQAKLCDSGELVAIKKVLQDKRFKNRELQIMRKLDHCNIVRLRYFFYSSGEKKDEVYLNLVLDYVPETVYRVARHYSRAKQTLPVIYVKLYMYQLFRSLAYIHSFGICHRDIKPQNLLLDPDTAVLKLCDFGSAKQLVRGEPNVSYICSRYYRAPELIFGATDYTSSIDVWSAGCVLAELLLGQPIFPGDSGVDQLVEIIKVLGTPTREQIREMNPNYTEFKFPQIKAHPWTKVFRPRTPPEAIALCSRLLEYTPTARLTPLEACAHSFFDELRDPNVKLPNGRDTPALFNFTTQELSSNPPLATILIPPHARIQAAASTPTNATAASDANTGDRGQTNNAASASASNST

Ki (GSK-3β (AA 1-420)) [µM]	Ki (Aurora-2) [µM]	Compound
< 0.1	1 to 20	Fc1cc(F)c2[nH]nc(Nc3nc(-c4ccccc4Cl)nc4ccccc34)c2c1 [II-76, [2-(2-Chloro-phenyl)-quinazolin-4-yl]-(5,7-difluoro-1H-indazol-3-yl)-amine]
< 0.1	1 to 20	FC(F)(F)c1ccccc1-c1nc(Nc2n[nH]c3ccccc23)cc(-c2ccncc2)n1 [II-21, (1H-Indazol-3-yl)-[6-(pyridin-4-yl)-2-(2-trifluoromethyl-phenyl)-pyrimidin-4-yl]-amine]
0.1 to 1	0.1 to 1	Cc1cc(Nc2nc(-c3ccncc3)nc3cc(Cl)ccc23)[nH]n1 [III-28, (7-Chloro-2-pyridin-4-yl-quinazolin-4-yl)-(5-methyl-2H-pyrazol-3-yl)-amine]
0.1 to 1	1 to 20	FC(F)(F)c1ccccc1-c1cc2ccccc2c(Nc2n[nH]c3ccccc23)n1 [Compound V-2, (1H-Indazol-3-yl)-[3-(2-trifluoromethyl-phenyl)-isoquinoline-1-yl]-amine]
< 0.1	1 to 20	Cc1ccccc1-c1nc(Nc2n[nH]c3ccccc23)c2ccccc2n1 [II-67, (1H-indazol-3-yl)-[2-(2-methyl-phenyl)-quinazolin-4-yl]-amine]
< 0.1	1 to 20	Clc1ccccc1-c1nc(Nc2n[nH]c3ccccc23)c2ccccc2n1 [II-63, [2-(2-Chloro-phenyl)-quinazolin-4-yl]-(1H-indazol-3-yl)-amine]
0.1 to 1	1 to 20	FC(F)(F)c1ccccc1-c1cc(Nc2nc[nH]n2)c2ccccc2n1 [IX-177, (1H-[1,2,4]triazol-3-yl)-[2-(2-trifluoromethyl-phenyl)-quinolin-4-yl]-amine]
< 0.1	0.1 to 1	FC(F)(F)c1ccc2[nH]nc(Nc3nc(-c4ccccc4C(F)(F)F)nc4ccccc34)c2c1 [II-64, (5-Trifluoromethyl-1H-indazol-3-yl)-[2-(2-trifluoromethyl-phenyl)-quinazolin-4-yl]-amine]
< 0.1	< 0.1	Cc1cc(Nc2nc(-c3cccc(C)c3C)nc3ccccc23)n[nH]1 [II-40, [2-(2,3-Dimethylphenyl)-quinazolin-4-yl]-(5-methyl-2H-pyrazol-3-yl)-amine]
< 0.1	0.1 to 1	CCc1cc(Nc2cc(C)n[nH]2)nc(-c2ccccc2OC(F)(F)F)n1 [II-105, [6-Ethyl-2-(2-trifluoromethoxy-phenyl)-pyrimidin-4-yl]-(5-methyl-2H-pyrazol-3-yl)-amine]
< 0.1	< 0.1	Cc1cc(Nc2nc(-c3ccccc3C(F)(F)F)nc3ccccc23)n[nH]1 [II-41, (5-Methyl-2H-pyrazol-3-yl)-[2-(2-trifluoromethylphenyl)-quinazolin-4-yl]-amine]
–	< 0.1	FC(F)(F)c1ccccc1-c1nc(Nc2cc(C3CC3)[nH]n2)c2ccccc2n1 [II-55, (5-Cyclopropyl-2H-pyrazol-3-yl)-[2-(2-trifluoromethyl-phenyl)-quinazolin-4-yl]-amine]
0.1 to 1	0.1 to 1	OCc1cc(Nc2nc(N3CCCCC3)nc3ccccc23)[nH]n1 [III-124, (5-Hydroxymethyl-2H-pyrazol-3-yl)-[2-(piperidin-1-yl)-quinazolin-4-yl]-amine]
0.1 to 1	1 to 20	FC(F)(F)c1cccc(-c2nc(Nc3[nH]nc4ccccc34)c3ccccc3n2)c1 [III-132, (1H-Indazol-3-yl)-[2-(3-trifluoromethyl-phenyl)-quinazolin-4-yl]-amine]
< 0.1	< 0.1	Cc1cc(Nc2nc(-c3ccc(F)c(Cl)c3)nc3ccccc23)[nH]n1 [III-52, [2-(3-Chloro-4-fluorophenyl)-quinazolin-4-yl]-(5-methyl-2H-pyrazol-3-yl)-amine]
< 0.1	1 to 20	FC(F)(F)c1ccccc1-c1nc(Nc2n[nH]c3cc(Br)ccc23)c2ccccc2n1 [II-82, (6-Bromo-1H-indazol-3-yl)-[2-(2-trifluoromethyl-phenyl)-quinazolin-4-yl]-amine]
< 0.1	< 0.1	Cc1cc(Nc2nc(-c3ccccc3Cl)nc3ccccc23)n[nH]1 [II-36, [2-(2-Chlorophenyl)-quinazolin-4-yl]-(5-methyl-2H-pyrazol-3-yl)-amine]
< 0.1	0.1 to 1	Cc1cc(Nc2nc(-c3ccccc3Cl)nc(C)c2C)n[nH]1 [II-1, [2-(2-Clorophenyl)-5,6-dimethylpyrimidin-4-yl]-(5-Methyl-2H-pyrazol-3-yl)-amine]

Ki (GSK-3β (AA 1-420)) [µM]	Ki (Aurora-2) [µM]	Compound
< 0.1	1 to 20	COc1cccc2c(Nc3n[nH]c4ccccc34)nc(-c3ccccc3C(F)(F)F)nc12 [II-90, (1H-Indazol-3-yl)-[8-methoxy-2-(2-trifluoromethyl-phenyl)-quinazolin-4-yl]-amine]
< 0.1	0.1 to 1	CCc1ccccc1-c1nc(Nc2cc(C)[nH]n2)c2ccccc2n1 [II-42, [2-(2-Ethylphenyl)-quinazolin-4-yl]-(5-Methyl-2H-pyrazol-3-yl)-amine]
0.1 to 1	1 to 20	Cc1cc(Nc2cc(-c3ccco3)n[nH]2)nc(-c2ccccc2OC(F)(F)F)n1 [II-104, (5-Furan-2-yl-2H-pyrazol-3-yl)-[6-methyl-2-(2-trifluoromethoxy-phenyl)-pyrimidin-4-yl]-amine]
< 0.1	< 0.1	Cc1cc(Nc2nc(-c3ccccc3C)nc3ccccc23)n[nH]1 [II-33, (5-Methyl-2H-pyrazol-3-yl)-[2-(2-methylphenyl)-quinazolin-4-yl]-amine]
< 0.1	0.1 to 1	FC(F)(F)c1ccccc1-c1nc(Nc2cc[nH]n2)c2ccccc2n1 [II-53, (2H-Pyrazol-3-yl)-[2-(2-trifluoromethylphenyl)-quinazolin-4-yl]-amine]
< 0.1	1 to 20	FC(F)(F)c1ccccc1-c1nc(Nc2n[nH]c3ccccc23)c2ccccc2n1 [II-57, (1H-indazol-3-yl)-[2-(2-trifluoromethyl-phenyl)-quinazolin-4-yl]-amine]
0.1 to 1	1 to 20	Cc1cc(Nc2cc(-c3ccccc3)n[nH]2)nc(-c2ccccc2OC(F)(F)F)n1 [II-103, [6-Methyl-2-(2-trifluoromethoxy-phenyl)-pyrimidin-4-yl]-(5-phenyl-2H-pyrazol-3-yl)-amine]
< 0.1	1 to 20	c1ccc2c(Nc3n[nH]c4ccccc34)nc(-n3ccnc3)nc2c1 [III-141, (2-imidazol-1-yl-quinazolin-4-yl)-(1H-indazol-3-yl)-amine]
< 0.1	1 to 20	N#Cc1ccccc1-c1nc(Nc2n[nH]c3ccccc23)c2ccccc2n1 [II-78, [2-(2-cyano-phenyl)-quinazolin-4-yl]-(1H-indazol-3-yl)-amine]
–	< 0.1	COc1ccccc1-c1nc(Nc2cc(C)[nH]n2)c2ccccc2n1 [II-37, [2-(2-Methoxyphenyl)-quinazolin-4-yl]-(5-methyl-2H-pyrazol-3-yl)-amine]
0.1 to 1	–	Cc1cc(Nc2nc(-c3ccccc3O)nc3ccccc23)n[nH]1 [II-44, [2-(2-Hydroxyphenyl)-quinazolin-4-yl]-(5-Methyl-2H-pyrazol-3-yl)-amine]
1 to 20	–	Cc1cc(C)c2c(Nc3nc(-c4ccccc4C(F)(F)F)nc4ccccc34)n[nH]c2n1 [II-100]
< 0.1	–	Fc1cc(F)c2[nH]nc(Nc3nc(-c4ccc(C(F)(F)F)cc4C(F)(F)F)nc4ccccc34)c2c1 [II-83, [2-(2,4-Bis-trifluoromethyl-phenyl)-quinazolin-4-yl]-(5,7-difluoro-1H-indazol-3-yl)-amine]
1 to 20	–	CC1CN(c2nc(Nc3[nH]nc4ccccc34)c3ccccc3n2)CC(C)O1 (stereo not shown) [III-145, (1H-Indazol-3-yl)-[2-(2,6-dimethyl-morpholin-4-yl)-quinazolin-4-yl]-amine]
1 to 20	–	Cc1ccc(NC(=O)c2cc(Nc3nc(-c4ccccc4)nc4ccccc34)[nH]n2)cc1 [III-95, (2-Phenyl-quinazolin-4-yl)-(5-p-tolylcarbamoyl-2H-pyrazol-3-yl)-amine]
< 0.1	–	Fc1cc(F)c2[nH]nc(Nc3nc(-c4ccccc4Cl)nc4c3CCCCC4)c2c1 [II-6, [2-(2-Chloro-phenyl)-6,7,8,9-tetrahydro-5H-cycloheptapyrimidin-4-yl]-(5,7-difluoro-1H-indazol-3-yl)-amine]
< 0.1	–	Fc1c(C(F)(F)F)ccc2c(Nc3nc(-c4ccccc4C(F)(F)F)nc4ccccc34)n[nH]c12 [II-81, (7-Fluoro-6-trifluoromethyl-1H-indazol-3-yl)-[2-(2-trifluoromethyl-phenyl)-quinazolin-4-yl]-amine]
